Results published in the NIST ThermoML archive (doi:10.1021/je0301794).
Numbers after ± are expanded uncertainties.

Tests used:
[1] = xn = mol fraction of the nth substance listed; conditions: 101.3 kPa, Liquid
[2] = excess molar enthalpy (molar enthalpy of mixing); xn = mol fraction of the nth substance listed; conditions: 318.15 K, 101.3 kPa, Liquid

## CCCCCCCCC [nonane] + COC(=O)OC
[1]; 293.15 K, x2 = 0
  mass density: 717.7 ± 0.5 kg/m3
[1]; 293.15 K, x2 = 0.0444
  mass density: 724.2 ± 0.5 kg/m3
[1]; 293.15 K, x2 = 0.0909
  mass density: 731.4 ± 0.5 kg/m3
[1]; 293.15 K, x2 = 0.1838
  mass density: 747.3 ± 0.5 kg/m3
[1]; 293.15 K, x2 = 0.28
  mass density: 766.3 ± 0.5 kg/m3
[1]; 293.15 K, x2 = 0.3783
  mass density: 789 ± 0.5 kg/m3
[1]; 293.15 K, x2 = 0.4778
  mass density: 815.8 ± 0.5 kg/m3
[1]; 293.15 K, x2 = 0.5789
  mass density: 847.5 ± 0.5 kg/m3
[1]; 293.15 K, x2 = 0.6816
  mass density: 885.9 ± 0.5 kg/m3
[1]; 293.15 K, x2 = 0.7851
  mass density: 932.5 ± 0.5 kg/m3
[1]; 293.15 K, x2 = 0.8921
  mass density: 991.9 ± 0.5 kg/m3
[1]; 293.15 K, x2 = 0.9461
  mass density: 1028.3 ± 0.5 kg/m3
[1]; 298.15 K, x2 = 0
  mass density: 713.9 ± 0.5 kg/m3
[1]; 298.15 K, x2 = 0.0247
  mass density: 717.5 ± 0.5 kg/m3
[1]; 298.15 K, x2 = 0.083
  mass density: 726.1 ± 0.5 kg/m3
[1]; 298.15 K, x2 = 0.1221
  mass density: 732.4 ± 0.5 kg/m3
[1]; 298.15 K, x2 = 0.1812
  mass density: 742.6 ± 0.5 kg/m3
[1]; 298.15 K, x2 = 0.2278
  mass density: 751.4 ± 0.5 kg/m3
[1]; 298.15 K, x2 = 0.317
  mass density: 770 ± 0.5 kg/m3
[1]; 298.15 K, x2 = 0.3986
  mass density: 789.4 ± 0.5 kg/m3
[1]; 298.15 K, x2 = 0.4701
  mass density: 808.5 ± 0.5 kg/m3
[1]; 298.15 K, x2 = 0.5281
  mass density: 825.7 ± 0.5 kg/m3
[1]; 298.15 K, x2 = 0.601
  mass density: 849.8 ± 0.5 kg/m3
[1]; 298.15 K, x2 = 0.6553
  mass density: 869.8 ± 0.5 kg/m3
[1]; 298.15 K, x2 = 0.7064
  mass density: 890.4 ± 0.5 kg/m3
[1]; 298.15 K, x2 = 0.7517
  mass density: 910.5 ± 0.5 kg/m3
[1]; 298.15 K, x2 = 0.7982
  mass density: 933 ± 0.5 kg/m3
[1]; 298.15 K, x2 = 0.8404
  mass density: 955.5 ± 0.5 kg/m3
[1]; 298.15 K, x2 = 0.8725
  mass density: 973.9 ± 0.5 kg/m3
[1]; 298.15 K, x2 = 0.9073
  mass density: 995.7 ± 0.5 kg/m3
[1]; 298.15 K, x2 = 0.9371
  mass density: 1015.5 ± 0.5 kg/m3
[1]; 298.15 K, x2 = 0.9711
  mass density: 1040.4 ± 0.5 kg/m3
[1]; 303.15 K, x2 = 0
  mass density: 710.1 ± 0.5 kg/m3
[1]; 303.15 K, x2 = 0.0444
  mass density: 716.3 ± 0.5 kg/m3
[1]; 303.15 K, x2 = 0.0909
  mass density: 723.3 ± 0.5 kg/m3
[1]; 303.15 K, x2 = 0.1838
  mass density: 738.9 ± 0.5 kg/m3
[1]; 303.15 K, x2 = 0.28
  mass density: 757.5 ± 0.5 kg/m3
[1]; 303.15 K, x2 = 0.3783
  mass density: 779.7 ± 0.5 kg/m3
[1]; 303.15 K, x2 = 0.4778
  mass density: 805.9 ± 0.5 kg/m3
[1]; 303.15 K, x2 = 0.5789
  mass density: 837 ± 0.5 kg/m3
[1]; 303.15 K, x2 = 0.6816
  mass density: 874.8 ± 0.5 kg/m3
[1]; 303.15 K, x2 = 0.7851
  mass density: 920.7 ± 0.5 kg/m3
[1]; 303.15 K, x2 = 0.8921
  mass density: 979.7 ± 0.5 kg/m3
[1]; 303.15 K, x2 = 0.9461
  mass density: 1015.6 ± 0.5 kg/m3
[1]; 313.15 K, x2 = 0
  mass density: 702.2 ± 0.5 kg/m3
[1]; 313.15 K, x2 = 0.0444
  mass density: 708.3 ± 0.5 kg/m3
[1]; 313.15 K, x2 = 0.0909
  mass density: 715.1 ± 0.5 kg/m3
[1]; 313.15 K, x2 = 0.1838
  mass density: 730.4 ± 0.5 kg/m3
[1]; 313.15 K, x2 = 0.28
  mass density: 748.7 ± 0.5 kg/m3
[1]; 313.15 K, x2 = 0.3783
  mass density: 770.5 ± 0.5 kg/m3
[1]; 313.15 K, x2 = 0.4778
  mass density: 796 ± 0.5 kg/m3
[1]; 313.15 K, x2 = 0.5789
  mass density: 826.7 ± 0.5 kg/m3
[1]; 313.15 K, x2 = 0.6816
  mass density: 864 ± 0.5 kg/m3
[1]; 313.15 K, x2 = 0.7851
  mass density: 909.4 ± 0.5 kg/m3
[1]; 313.15 K, x2 = 0.8921
  mass density: 967.3 ± 0.5 kg/m3
[1]; 313.15 K, x2 = 0.9461
  mass density: 1002.8 ± 0.5 kg/m3
[1]; 318.15 K, x2 = 0
  mass density: 698.1 ± 0.5 kg/m3
[1]; 318.15 K, x2 = 0.0409
  mass density: 703.8 ± 0.5 kg/m3
[1]; 318.15 K, x2 = 0.0763
  mass density: 709 ± 0.5 kg/m3
[1]; 318.15 K, x2 = 0.1089
  mass density: 714 ± 0.5 kg/m3
[1]; 318.15 K, x2 = 0.1249
  mass density: 716.6 ± 0.5 kg/m3
[1]; 318.15 K, x2 = 0.1452
  mass density: 719.9 ± 0.5 kg/m3
[1]; 318.15 K, x2 = 0.1957
  mass density: 728.5 ± 0.5 kg/m3
[1]; 318.15 K, x2 = 0.2309
  mass density: 735 ± 0.5 kg/m3
[1]; 318.15 K, x2 = 0.3153
  mass density: 751.7 ± 0.5 kg/m3
[1]; 318.15 K, x2 = 0.3894
  mass density: 768.3 ± 0.5 kg/m3
[1]; 318.15 K, x2 = 0.4732
  mass density: 789.6 ± 0.5 kg/m3
[1]; 318.15 K, x2 = 0.5442
  mass density: 810.1 ± 0.5 kg/m3
[1]; 318.15 K, x2 = 0.6088
  mass density: 831.2 ± 0.5 kg/m3
[1]; 318.15 K, x2 = 0.6356
  mass density: 840.8 ± 0.5 kg/m3
[1]; 318.15 K, x2 = 0.711
  mass density: 870.1 ± 0.5 kg/m3
[1]; 318.15 K, x2 = 0.761
  mass density: 891.8 ± 0.5 kg/m3
[1]; 318.15 K, x2 = 0.787
  mass density: 904 ± 0.5 kg/m3
[1]; 318.15 K, x2 = 0.8304
  mass density: 926 ± 0.5 kg/m3
[1]; 318.15 K, x2 = 0.8802
  mass density: 954.1 ± 0.5 kg/m3
[1]; 318.15 K, x2 = 0.9335
  mass density: 987.7 ± 0.5 kg/m3
[1]; 318.15 K, x2 = 0.9414
  mass density: 993.1 ± 0.5 kg/m3
[1]; 318.15 K, x2 = 0.972
  mass density: 1015 ± 0.5 kg/m3
[2]; x2 = 0
  excess molar enthalpy: 0 ± 0.000478 kcal/mol
[2]; x2 = 0.1291
  excess molar enthalpy: 0.24 ± 0.00526 kcal/mol
[2]; x2 = 0.2483
  excess molar enthalpy: 0.396 ± 0.00837 kcal/mol
[2]; x2 = 0.3498
  excess molar enthalpy: 0.489 ± 0.0103 kcal/mol
[2]; x2 = 0.4426
  excess molar enthalpy: 0.538 ± 0.0112 kcal/mol
[2]; x2 = 0.5099
  excess molar enthalpy: 0.549 ± 0.0115 kcal/mol
[2]; x2 = 0.573
  excess molar enthalpy: 0.55 ± 0.0115 kcal/mol
[2]; x2 = 0.627
  excess molar enthalpy: 0.533 ± 0.0112 kcal/mol
[2]; x2 = 0.6622
  excess molar enthalpy: 0.515 ± 0.0108 kcal/mol
[2]; x2 = 0.6743
  excess molar enthalpy: 0.509 ± 0.0108 kcal/mol
[2]; x2 = 0.7043
  excess molar enthalpy: 0.49 ± 0.0103 kcal/mol
[2]; x2 = 0.748
  excess molar enthalpy: 0.455 ± 0.00956 kcal/mol
[2]; x2 = 0.7814
  excess molar enthalpy: 0.427 ± 0.00908 kcal/mol
[2]; x2 = 0.8236
  excess molar enthalpy: 0.378 ± 0.00813 kcal/mol
[2]; x2 = 0.8663
  excess molar enthalpy: 0.316 ± 0.00669 kcal/mol
[2]; x2 = 0.9069
  excess molar enthalpy: 0.25 ± 0.0055 kcal/mol
[2]; x2 = 0.9415
  excess molar enthalpy: 0.18 ± 0.00406 kcal/mol
[2]; x2 = 0.9752
  excess molar enthalpy: 0.098 ± 0.00239 kcal/mol
